Experimental data as given in patent EP4623918A1, “AGENT FOR INCREASING BRAIN PLASMALOGEN, AND USE OF ORAL COMPOSITION AND COMPOUND FOR INCREASING BRAIN PLASMALOGEN” (Institute of Rheological Function of Food Co., Ltd., priority 2022, dated 2024).

Key:
[1] = system: wild-type mice (male, C57BL/6J mice); assay: Effect of KIT-13 on cerebral cortex PlsEtn (LC-MS/MS), wild-type mice; type: in vivo; settings: wild-type male C57BL/6J mice; KIT-13 given as in Example 2 for four weeks; control group taken as 1; FIG. 2
Experimental: For the KIT-13 administration group, KIT-13 was suspended in water by ultrasonication, and administered twice a week by drinking-water administration such that 20 ng/g body weight of KIT-13 was taken. In contrast, the control group was given only water in a similar manner. […]
(§1) The collected cerebral cortex was homogenized in a lysate (0.25 M sucrose, 10 mM HEPES-KOH (pH 7.4), 1 mM EDTA, and a protease inhibitor cocktail) to prepare a tissue lysate (25 µg protein). To the tissue lysate in a sample tube, 400 µL of MeOH and 100 µL of internal standard IS (C12 phosphatidylethanolamine (PE) and C12 phosphatidylcholine (PC)) dissolved in chloroform/methanol (C:M=1:2) were added and then mixed. The resulting mixture was transferred to a glass tube. Then, 200 µL of MeOH was added again to the sample tube, and after the same operation, the resulting mixture was transferred to the glass tube. To the sample, 1.2 mL of C/M (1:1) was added, mixed, sonicated for 5 minutes, and left to stand for 60 minutes. […] Thereafter, the sample was dried under nitrogen gas, dissolved in MeOH, and analyzed using liquid chromatography-mass spectrometry (LC-MS/MS). […]
Four-week-old wild-type mice (male, C57BL/6J mice, manufactured by the Jackson Laboratory Japan, Inc.) were divided into two groups: a control group and a KIT-13 administration group. […] PlsEtn in the collected cerebral cortex was quantified as with Example 2.

MeCP2-deficient mice = assay: Effect of KIT-13 on brain plasmalogen in cerebral cortex tissue lysate (LC-MS/MS), MeCP2-deficient mice; type: in vivo; settings: male MeCP2-deficient mice, 20 ng/g body weight twice a week by drinking-water administration for three weeks, vs control group given water
Experimental: Four-week-old male MeCP2-deficient mice lacking the MeCP2 gene on the X chromosome were used in the test. The MeCP2-deficient mice were divided into two groups: a control group (MeCP2-KO) and a KIT-13 administration group (KIT-13).
For the KIT-13 administration group, KIT-13 was suspended in water by ultrasonication, and administered twice a week by drinking-water administration such that 20 ng/g body weight of KIT-13 was taken. In contrast, the control group was given only water in a similar manner. KIT-13 was administered for three weeks until the mice were seven weeks old, and the cerebral cortex was collected from the brains of the mice.
as §1, with “tube.” for “tube. Then, 200 µL of MeOH was added again to the sample tube, and after the same operation, the resulting mixture was transferred to the glass tube. To the sample, 1.2 mL of C/M (1:1) was added, mixed, sonicated for 5 minutes, and left to stand for 60 minutes.”

CCCCCC=CCC=CCC=CCC=CCCCC(=O)OC(COCCCCCCCCCCCCCCCCCC)COP(=O)(O)OCCN [KIT-13, 2-(hydroxy((R)-2-(((5Z,8Z,11Z,14Z)-icosa-5,8,11,14-tetraenoyl)oxy)-3-(octadedecyloxy)propoxy)phosphoryl)oxy)ethane-1-ammonium 2,2,2-trifluoroacetate]
significantly increased: relative PlsEtn amount in the cerebral cortex [1] | concentration of PlsEtn in the tissue lysate (MeCP2-deficient mice; p < 0.05, FIG. 1A) | concentration of PlsEtn in which the sn-1 position is a saturated aliphatic hydrocarbon group having 18 carbon atoms (PlsEtn-C18:0), in the tissue lysate (MeCP2-deficient mice; p < 0.05, FIG. 1B)
